{"source": "paper PMC10818380", "about": "“Triphenylphosphonium Analogs of Short Peptide Related to Bactenecin 7 and Oncocin 112 as Antimicrobial Agents” (Pharmaceutics, 2024)", "key": {"[1]": {"system": "A549", "assay": "cells", "description": "(§1) The cytotoxicity of the substances under study was tested using the MTT (3-(4,5-dimethylthiazol-2-yl)-2,5-diphenyltetrazolium bromide) assay with some modifications. The detailed procedure for the MTT assay is given in the Supplementary Materials (Section S5).\n(§2) Two thousand five hundred cells per well for the MCF7, HEK293T, and A549 cell lines or 4000 cells per well for the VA13 cell line were plated in 135 µL of DMEM-F12 media with 10% FBS (both Gibco, Waltham, MA, USA) in a 96-well plate and were incubated in a 5% CO2 incubator for the first 16 h, without treatment. Then 15 µL of media-DMSO solutions of the tested substances were added to the cells (the final DMSO concentrations in the media were 1% or less), and the cells were treated for 72 h with 25 nM–50 µM (eight dilutions) of the tested substances (triplicate each). Serial dilutions of DMSO and doxorubicin were used as controls. The MTT reagent (Paneco LLC, Moscow, Russia) was then added to the cells at a final concentration of 0.5 g/L (10× stock solution in PBS was used) and incubated for 2.5 h at 37 °C in the incubator under an atmosphere of 5%\n(§3) CO2. The MTT solution was then discarded, and 140 µL of DMSO (PharmaMed LLC, Krasnodar, Russia) was added. The plates were swayed on a shaker (60 rpm) to dissolve the formazan. The absorbance was measured using the VICTOR X5 Multilabel Plate Reader (PerkinElmer, Wa l th a m, MA, USA) at a wavelength of 565 nm (in order to measure formazan concentration). The resu l ts were used to construct a dose-response graph and to estimate IC50 values.\n(§4) Figure S11.The dependencies of viability of cells after treatment by tested compounds.\n(§5) (1 picture or pasted object on this page, not shown here)"}, "[2]": {"system": "MCF7", "assay": "cells", "assay_type": "cell-based, human", "description": "as §1, §2, §3, §4, §5"}, "[3]": {"system": "VA13", "assay": "cells", "assay_type": "cell-based, human", "description": "as §1, §2, §3, §4, §5"}, "[4]": {"system": "HEK293T", "assay": "cells", "assay_type": "cell-based, human", "settings": "72 h", "description": "as §1, §2, §3, §4, §5"}, "[5]": {"system": "E. coli BW25113", "assay": "microbe, parasite or virus in culture", "assay_type": "cell-based", "settings": "E. coli BW25113, 37 °C, 18 h", "description": "(§6) The MIC values for Bac(1–10), Bac(1–10, R/Y), Bac(1–10, R/Y)-Cn-TPP, TPP-C10-Bac(1–10, R/Y), and Onc112 were determined via LB broth microdilution, as recommended by CLSI in the Methods for Dilution Antimicrobial Susceptibility Tests for Bacteria that Grow Aerobically, Approved Standard, 9th ed., CLSI document M07-A9, using in-house-prepared panels. The compounds were diluted in a 96-well microtiter plate to final concentrations ranging from 0.1 to 100 µM in a 200 µL aliquot of the bacterial suspension, followed by incubation at 37 °C for 18 h. The cell concentration was estimated according to the absorbance (A600). The measurements were performed with a VICTOR X5 Multilabel Plate Reader (PerkinElmer, Waltham, MA, USA). The following bacterial strains were used: E. coli BW25113, E. coli JW0368 ΔsbmA, B. subtilis 168, and B. subtilis CFR [39]."}, "[6]": {"system": "B. subtilis 168", "assay": "microbe, parasite or virus in culture", "assay_type": "cell-based", "description": "as §6"}, "[7]": {"system": "E. coli JW0368 ΔsbmA", "assay": "microbe, parasite or virus in culture", "assay_type": "cell-based", "settings": "18 h", "description": "as §6"}, "[8]": {"system": "B. subtilis CFR", "assay": "microbe, parasite or virus in culture", "assay_type": "cell-based", "settings": "18 h", "description": "as §6"}, "[9]": {"system": "E. coli JW5503 (∆tolC) (KanS) pDualrep2", "assay": "pDualrep2 double-reporter agar plate test", "assay_type": "cell-based", "settings": "1 µL of 10 mM solution on agar plate", "description": "The “pDualrep2” system was used to evaluate the mechanism of the antimicrobial action of the synthesized compounds. This system is based on the hypersensitive strain E. coli JW5503 (∆tolC) (KanS) transformed with the “pDualrep2” plasmid, which allows one to sort out suppressors of protein synthesis or SOS response inducers. Briefly, 1 µL of 10 mM water solutions of Bac(1–10), Bac(1–10, R/Y), Bac(1–10, R/Y)-Cn-TPP, TPP-C10-Bac(1–10, R/Y), and Onc112 were applied onto the agar plate that already contained a layer of the reporter strain E. coli JW5503 (∆tolC) (KanS) pDualrep2, and then the plate was incubated overnight at 37 °C. The agar plate was scanned using the ChemiDoc^TM Imaging System (Bio-Rad Laboratories, Hercules, CA, USA), containing two channels, “Cy3-blot” (553/574 nm; green pseudocolor) for Turbo Red Fluorescent Protein (TurboRFP) detection and “Cy5-blot” (588/633 nm; red pseudocolor) for Katushka2S fluorescence. […] Levofloxacin (LEV; 50 μg/mL, 1 μL) and erythromycin (ERY; 5 mg/mL, 1 μL) were utilized as positive controls for DNA and protein synthesis inhibitors, respectively."}, "[10]": {"system": "B. subtilis", "assay": "Membrane potential with fluorescent probe diS-C3-(5)", "assay_type": "cell-based", "settings": "50 µM, diS-C3-(5) fluorescence", "description": "The membrane potential of B. subtilis was assessed by measuring the fluorescence emitted by the potential-dependent probe, diS-C3-(5). Bacterial cells derived from the overnight culture of B. subtilis were inoculated into a fresh LB medium and allowed to grow for 24 h until reaching an optical density of 0.8 at 600 nm. Subsequently, the bacteria were subjected to a 20-fold dilution in a buffer comprising 100 mM of KCl and 10 mM of Tris, adjusted to a pH of 7.4. Fluorescence measurements were conducted at 670 nm (with excitation at 630 nm) using a Fluorat-02-Panorama fluorimeter manufactured by Lumex Instruments in St. Petersburg, Russia."}, "[11]": {"system": "70S E. coli ribosome", "assay": "Competition-binding assay, displacement of BODIPY-Bac(1–10), fluorescence anisotropy", "settings": "CI (α = 0.05), read-out: apparent dissociation constant (KD)", "description": "70S ribosomes were isolated from E. coli MRE600 cells according to a published procedure. The binding of BODIPY-Bac(1–10) to 70S E. coli ribosomes was performed according to the following procedure. BODIPY-Bac(1–10) (16 nM) was incubated with ribosomes (from 0.5 nM to 2000 nM) for 2 h at 26 °C in a buffer containing 20 mM of HEPES-KOH (pH 7.5), 50 mM of NH4Cl, 10 mM of Mg(CH3COO)2, 4 mM of β-mercaptoethanol, and 0.05% Tween-20. The binding affinities of peptides 1 and 2, their TPP analogs 3–5, as well as the control compounds for the E. coli ribosome were analyzed via a competition-binding assay using fluorescently labeled BODIPY-Bac(1–10) or BODIPY-ERY, as described before in [38, 54]. The fluorescent compound (16 nM) was mixed with ribosomes (84 nM for BODIPY-Bac(1–10) and 46 nM for BODIPY-ERY) in the buffer. Solutions of the tested compounds were added to the obtained complexes to final concentrations ranging from 0.01 to 100 µM. The mixtures were incubated for 2 h at 26 °C, and then the values of fluorescence anisotropy were measured with a VICTOR X5 Multilabel Plate Reader (PerkinElmer, Waltham, MA, USA) using a 384-well plate. The excitation wavelength was 485 nm, and the emission wavelength was 535 nm. From the data obtained, apparent dissociation constants were calculated."}, "[12]": {"system": "bacterial translation (E. coli S30 extract)", "assay": "In vitro translation inhibition of firefly luciferase mRNA, E. coli S30 extract", "assay_type": "biochemical", "settings": "30 µM", "description": "Briefly, in vitro-transcribed firefly luciferase mRNA (fluc) was translated using the E. coli S30 Extract System for Linear Templates (Promega, Madison, WI, USA). Reaction mixtures (with a 5 μL total volume) supplemented with 0.1 mM of a mixture of all canonical amino acids, 4 U of RiboLock RNase Inhibitor (Thermo Fisher Scientific, Waltham, MA, USA), and 0.1 mM of D-luciferin (Sigma-Aldrich, Burlington, MA, USA) were pre-incubated at RT for 5 min after the addition of the tested compounds at a final concentration of 30 µM. Then, 50 ng of the mRNA was added to each reaction tube, and the mixtures were immediately subjected to continuous chemiluminescence measurements using the VICTOR X5 Multilabel Plate Reader (PerkinElmer, Waltham, MA, USA) at 37 °C for 30 min. The maximal rates of the firefly luciferase (Fluc) accumulation were calculated using the OriginPro 7.5 software. The values were normalized to a positive control (0.3% DMSO, assigned a value of 100%)."}}, "note": "Where two headings read alike, the source gives them in different places.", "data": [{"compound": "COc1cccc2c1C(=O)c1c(O)c3c(c(O)c1C2=O)C[C@@](O)(C(=O)CO)C[C@@H]3O[C@H]1C[C@H](N)[C@H](O)[C@H](C)O1", "note": "[Doxorubicin, reference compound]", "values": [{"measurement": "IC50", "setting": "[1]; Homo sapiens, A549, 72 h, read-out: IC50 (50% inhibition of viability of cells)", "result": "1200 ± 100", "unit": "nM"}, {"measurement": "IC50", "setting": "[2]; Homo sapiens, MCF7, 72 h, MTT, read-out: IC50 (50% inhibition of viability of cells)", "result": "1700 ± 200", "unit": "nM"}, {"measurement": "IC50", "setting": "[3]; Homo sapiens, VA-13, VA13, 72 h, MTT, read-out: IC50 (50% inhibition of viability of cells)", "result": "1200 ± 300", "unit": "nM"}, {"measurement": "IC50", "setting": "[4]; Homo sapiens, HEK-293T, HEK293T, MTT, read-out: IC50 (50% inhibition of viability of cells)", "result": "< 1600", "unit": "nM"}]}, {"compound": "CC[C@H]1OC(=O)[C@H](C)[C@@H](O[C@H]2C[C@@](C)(OC)[C@@H](O)[C@H](C)O2)[C@H](C)[C@@H](O[C@@H]2O[C@H](C)C[C@H](N(C)C)[C@H]2O)[C@](C)(O)C[C@@H](C)C(=O)[C@H](C)[C@@H](O)[C@]1(C)O", "note": "[ERY, erythromycin, reference compound]", "values": [{"measurement": "MIC", "setting": "[5]; Escherichia coli", "result": 170, "unit": "µM"}, {"measurement": "MIC", "setting": "[6]; Bacillus subtilis, B. subtilis 168, 37 °C, 18 h", "result": "< 0.1", "unit": "µM"}, {"measurement": "MIC", "setting": "[7]; Escherichia coli", "result": 170, "unit": "µM"}, {"measurement": "MIC", "setting": "[8]; Bacillus subtilis, B. subtilis-CFR (chloramphenicol-resistant), 37 °C", "result": "< 0.1", "unit": "µM"}, {"measurement": "reporter induction (Katushka2S red pseudocolor = protein synthesis inhibition)", "setting": "[9]", "result": "red pseudocolor reporter induction was observed"}]}, {"compound": "H-RRIRPRPPRL-OH [Compound 1, Bac(1–10)]", "values": [{"measurement": "effect on membrane potential of B. subtilis", "setting": "[10]", "result": "did not affect the membrane potential"}, {"measurement": "Kd", "setting": "[11]", "result": "1400 ± 100", "unit": "nM"}, {"measurement": "MIC", "setting": "[6]; 168, 18 h", "result": ">50", "unit": "µM"}, {"measurement": "MIC", "setting": "[8]; CFR", "result": ">50", "unit": "µM"}, {"measurement": "inhibition of bacterial translation of firefly luciferase (Fluc) mRNA", "setting": "[12]", "result": "practically did not inhibit"}, {"measurement": "inhibitory effect on growth of bacterial cells", "setting": "[9]", "result": "did not exhibit any antibacterial activity"}]}, {"compound": "H-RRIRPRPPYL-OH [Compound 2, Bac(1–10, R/Y)]", "values": [{"measurement": "effect on membrane potential of B. subtilis", "setting": "[10]", "result": "did not affect the membrane potential"}, {"measurement": "Kd", "setting": "[11]", "result": "1000 ± 100", "unit": "nM"}, {"measurement": "MIC", "setting": "[5]", "result": ">100", "unit": "µM"}, {"measurement": "MIC", "setting": "[7]; E. coli ∆sbmA, 37 °C", "result": ">100", "unit": "µM"}, {"measurement": "IC50", "setting": "[1]; 72 h", "result": "> 50000", "unit": "nM"}, {"measurement": "IC50", "setting": "[2]; 72 h", "result": "> 20000", "unit": "nM"}, {"measurement": "IC50", "setting": "[3]; 72 h", "result": "> 50000", "unit": "nM"}, {"measurement": "IC50", "setting": "[4]", "result": "> 50000", "unit": "nM"}, {"measurement": "inhibition of bacterial translation of firefly luciferase (Fluc) mRNA", "setting": "[12]", "result": "practically did not inhibit"}, {"measurement": "inhibitory effect on growth of bacterial cells", "setting": "[9]", "result": "did not exhibit any antibacterial activity"}]}]}
